The text below walks through data of article PMC4943339 (Molecular pharmaceutics, 2015).

This data set is described as follows: Pharmacokinetics of vancomycin after i.v. or pulmonary. Conditions: rabbits, 1 mg/kg i.v. bolus, plasma, LC/MS, non-compartmental, average ± S.D., n = 3; SD.

In general, Cmax refers to the peak of the concentration-time curve. Usually Tmax stands for the time at which the peak concentration occurs. `CN[C@H](CC(C)C)C(=O)N[C@H]1C(=O)N[C@@H](CC(N)=O)C(=O)N[C@H]2C(=O)N[C@H]3C(=O)N[C@H](C(=O)N[C@H](C(=O)O)c4cc(O)cc(O)c4-c4cc3ccc4O)[C@H](O)c3ccc(c(Cl)c3)Oc3cc2cc(c3O[C@@H]2O[C@H](CO)[C@@H](O)[C@H](O)[C@H]2O[C@H]2C[C@](C)(N)[C@H](O)[C@H](C)O2)Oc2ccc(cc2Cl)[C@H]1O` [vancomycin]: the “AUC(0-∞)” value is 12135.34 ± 616.52 ng·h/mL, the AUClast was 12069.85 ± 638.15 ng·h/mL, the C0 came out at 5347 ± 4927 ng/mL and the Clearance is 1.376 ± 0.0708 mL/min/kg. In addition, the maximum concentration (Cmax) was 3330 ± 1119 ng/mL, the Half-Life came out at 3.38 ± 0.43 h, the time of peak concentration (Tmax) is 0.67 ± 0.29 h and the “Volume of Dist.” value is 0.40389 ± 0.06483 L/kg.
